What was measured:
diabetic rats = details: 19.8% deficit in diabetic rats; cited from earlier work
JC virus = details: human glial cells; cited from earlier work
heatstroke = details: during heatstroke; cited from earlier work
[1] = test system: DOI-induced hypolocomotion in rats; assay: Attenuation of DOI-induced hypolocomotion in rats; assay type: in vivo, rat; details: compound 1-10 mg/kg p.o., DOI 1 mg/kg s.c.
Experimental: In this example, compounds of the invention were tested for inverse agonist activity by determining whether these compounds could attenuate DOI-induced hypolocomotion in rats in a novel environment. DOI is a potent 5-HT2A/2C receptor agonist that crosses the blood-brain barrier. The standard protocol used is described briefly below.
Male Sprague-Dawley rats weighing between 200-350 g were used for all tests. Rats were housed three to four per cage.
(R)-DOI HCl (C11H16INO2.HCl) was obtained from Sigma-Aldrich and was dissolved in 0.9% saline. Compounds of the invention were synthesized at Arena Pharmaceuticals Inc., San Diego, Calif. and were dissolved in 100% PEG400. DOI was injected s.c. in a volume of 1 mL/kg, while compounds of the invention were administered p.o. in a volume of 1 mL/kg.
The “Motor Monitor” (Hamilton-Kinder, Poway, Calif.) was used for all activity measurement. This apparatus recorded rears using infrared photobeams. […]
In determining the effects of compounds of the invention on DOI-induced hypoactivity, animals were first injected with vehicle or the compound of the invention (1-10 mg/kg) in their home cages. […] Ten minutes after DOI administration, animals were placed into the activity apparatus and rearing activity was measured for 10 min.
Results (total rears over 10 min) were analyzed by t-test. […]

[2] = test system: diabetic nephropathy patients; details: 24 months of treatment; cited from earlier work
[3] = test system: thermal induced pain in rats; details: intraperitoneal administration; cited from earlier work
[4] = test system: inflammatory pain in rats; details: intrathecal or intraperitoneal administration; cited from earlier work
humans = details: lumbar disc herniation; cited from earlier work
healthy adults = assay: Phase 1 trials, waking EEG; assay type: in vivo, human
normal volunteers = assay: Afternoon nap model of insomnia in normal volunteers; assay type: in vivo, human

## Cc1nc2sccn2c(=O)c1CCN1CCC(=C(c2ccc(F)cc2)c2ccc(F)cc2)CC1 [ritanserin]
Diabetic rats
  correction of sciatic motor conduction deficit: 82.6-99.7%
JC virus
  JC virus infection: inhibited

## O=C(c1ccc(F)cc1)C1CCN(CCn2c(=O)[nH]c3ccccc3c2=O)CC1 [ketanserin]
JC virus
  JC virus infection: inhibited
heatstroke
  protection against circulatory shocks, intracranial hypertension and cerebral ischemia: protect against circulatory shocks, intracranial hypertension and cerebral ischemia

## O=C(c1cccn2ccnc12)N1CCN(CCc2ccccc2F)CC1 [Compound 18, (4-(2-Fluorophenethyl)piperazin-1-yl)(imidazo[1,2-a]pyridin-8-yl)methanone]
[1]
  attenuation of DOI-induced hypolocomotion (total rears over 10 min): attenuated DOI-induced hypolocomotion

## O=CN1CCC(C(=O)NCCN2CCC(=C3c4ccccc4C=Cc4ccccc43)CC2)CC1 [AT-1015]
Diabetic rats
  correction of sciatic motor conduction deficit: 82.6-99.7%

## COc1cccc(CCc2ccccc2OCC(CN(C)C)OC(=O)CCC(=O)O)c1 (stereo not drawn) [sarpogrelate]
Diabetic rats
  correction of sciatic motor conduction deficit: 82.6-99.7%
[2]
  urinary albumin excretion level: significantly reduced
[3]
  analgesic effect on thermal induced pain: significant analgesic effect
[4]
  analgesic effect on inflammatory pain: significant analgesic effect
humans
  treatment of lower back pain, leg pain and numbness associated with sciatica: effective treatment

## O=C(c1cccn2ccnc12)N1CCN(CCc2ccc(Cl)cc2Cl)CC1 [Compound 19, (4-(2,4-Dichlorophenethyl)piperazin-1-yl)(imidazo[1,2-a]pyridin-8-yl)methanone]
[1]
  attenuation of DOI-induced hypolocomotion (total rears over 10 min): attenuated DOI-induced hypolocomotion

## COc1ccc(NC(=O)Nc2ccc(F)cc2F)cc1-c1c(Br)cnn1C [APD125]
Healthy adults
  effect on waking EEG: vigilance-lowering effects
Healthy adults; waking EEG
  dose of maximal vigilance-lowering effects: 40 to 80 mg
  time of peak effects after dosing: 2 to 4 h
Normal volunteers; human, in vivo
  microarousals, number of sleep stage shifts and number of awakenings after sleep onset: decreased
  sleep onset latency: not decreased
Normal volunteers; primarily during the early part of sleep
  slow wave sleep and associated parameters: increased slow wave sleep and associated parameters in a dose-dependent manner
